# Measurements published in PubChem BioAssay (NCI).
#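 GI50: concentration for 50% inhibition of growth. At the TGI there is no net growth.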
# Columns and labels:
# Experiment in all cases: NCI tumour cell line growth inhibition, 384-well format
# RPMI-8226 leukemia = test system: RPMI-8226 leukemia
# TK-10 renal = test system: TK-10 renal
# SF-295 CNS = test system: SF-295 CNS
# COLO 205 colon = test system: COLO 205 colon
# HL-60(TB) leukemia = test system: HL-60(TB) leukemia
# HT29 colon = test system: HT29 colon
# HOP-92 NSCLC = test system: HOP-92 NSCLC
# NCI-H522 lung = test system: NCI-H522 lung
# SN12C renal = test system: SN12C renal
# U251 glioblastoma = test system: U251 glioblastoma
# UO-31 renal = test system: UO-31 renal
# OVCAR-4 ovarian = test system: OVCAR-4 ovarian
# SK-MEL-5 melanoma = test system: SK-MEL-5 melanoma
smiles,measurement,setting,value
NC(=O)[C@@H](CC1CC1)[C@@H](CCC(F)(F)F)C(=O)N[C@H]1N=C(c2ccccc2)c2cccc(F)c2NC1=O,GI50,RPMI-8226 leukemia,16.2 µM
same,TGI,RPMI-8226 leukemia,36.2 µM
same,GI50,TK-10 renal,16.5 µM
same,TGI,TK-10 renal,33 µM
same,GI50,SF-295 CNS,17.8 µM
same,TGI,SF-295 CNS,37.2 µM
same,GI50,COLO 205 colon,> 38.8 µM
same,TGI,COLO 205 colon,> 60.3 µM
same,GI50,HL-60(TB) leukemia,29.7 µM
same,TGI,HL-60(TB) leukemia,> 100 µM
same,GI50,HT29 colon,32.9 µM
same,TGI,HT29 colon,98 µM
same,GI50,HOP-92 NSCLC,15.5 µM
same,TGI,HOP-92 NSCLC,29.6 µM
same,GI50,NCI-H522 lung,15.2 µM
same,TGI,NCI-H522 lung,30.5 µM
same,GI50,SN12C renal,16.2 µM
same,TGI,SN12C renal,31.2 µM
same,GI50,U251 glioblastoma,17.7 µM
same,TGI,U251 glioblastoma,34 µM
same,GI50,UO-31 renal,17.6 µM
same,TGI,UO-31 renal,69.1 µM
same,GI50,OVCAR-4 ovarian,13.3 µM
same,TGI,OVCAR-4 ovarian,28.1 µM
same,GI50,SK-MEL-5 melanoma,9.41 µM
same,TGI,SK-MEL-5 melanoma,24.1 µM
